The values below come from patent publication US11944626B2, “Small molecule inhibitors of ALDH and uses thereof” (The Regents of the University of Michigan, priority 2016, dated 2024).

Counter-ions that a name gives are not always drawn. A value given as a limit tells only on which side of the number the result lay.

One series concerns the target T1, ALDH1A1 (Homo sapiens, UniProt P00352).
T1 sequence (P00352 1-501): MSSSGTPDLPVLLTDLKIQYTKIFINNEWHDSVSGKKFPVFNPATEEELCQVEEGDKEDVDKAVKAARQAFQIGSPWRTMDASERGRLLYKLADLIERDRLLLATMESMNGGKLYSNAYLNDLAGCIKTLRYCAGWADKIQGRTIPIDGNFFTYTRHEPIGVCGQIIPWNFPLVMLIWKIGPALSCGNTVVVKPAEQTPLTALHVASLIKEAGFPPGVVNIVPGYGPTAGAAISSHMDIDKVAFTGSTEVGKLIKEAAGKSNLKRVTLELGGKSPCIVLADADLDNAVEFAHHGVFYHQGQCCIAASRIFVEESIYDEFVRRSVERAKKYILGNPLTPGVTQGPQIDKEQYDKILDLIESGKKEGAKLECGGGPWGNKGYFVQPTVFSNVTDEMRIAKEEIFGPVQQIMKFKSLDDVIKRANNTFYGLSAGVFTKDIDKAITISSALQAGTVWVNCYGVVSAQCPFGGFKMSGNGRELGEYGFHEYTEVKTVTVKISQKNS
Description: Inhibition of ALDH isoenzymes (NAD(P)H formation at 340 nm, purified recombinant enzyme). The conditions noted are these: for remaining activity at 20 µM: compound at 20 μM, read-out: ALDH1A1 % Control at 20 μM; for IC50: 100-200 nM enzyme, 200 μM NAD+, 100 μM propionaldehyde, pH 7.5, 25° C. The series is classed as biochemical.

For the next series, the target named is T2, ALDH1A2 (Homo sapiens, UniProt O94788).
T2 sequence (O94788 1-518): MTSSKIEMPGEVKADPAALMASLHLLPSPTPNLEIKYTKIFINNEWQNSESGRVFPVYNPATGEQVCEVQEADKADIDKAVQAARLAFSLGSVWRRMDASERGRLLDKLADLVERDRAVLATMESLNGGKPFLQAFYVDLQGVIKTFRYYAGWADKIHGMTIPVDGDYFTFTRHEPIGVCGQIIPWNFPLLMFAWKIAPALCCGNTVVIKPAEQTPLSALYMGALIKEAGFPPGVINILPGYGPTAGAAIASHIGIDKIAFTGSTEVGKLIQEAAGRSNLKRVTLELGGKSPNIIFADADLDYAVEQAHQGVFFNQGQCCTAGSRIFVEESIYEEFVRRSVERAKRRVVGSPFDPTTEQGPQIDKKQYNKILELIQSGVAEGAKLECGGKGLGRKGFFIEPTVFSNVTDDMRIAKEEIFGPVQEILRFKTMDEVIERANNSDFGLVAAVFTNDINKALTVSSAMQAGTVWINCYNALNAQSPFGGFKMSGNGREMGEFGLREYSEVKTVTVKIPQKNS
The description is as above. The series is classed as biochemical. The conditions noted are these: for remaining activity at 20 µM: compound at 20 μM, read-out: ALDH1A2 % Control at 20 μM; for IC50: 100-200 nM enzyme, 200 μM NAD+, 100 μM propionaldehyde, pH 7.5, 25° C.

Another series deals with T3, ALDH1A3 (Homo sapiens, UniProt P47895).
T3 sequence (P47895 1-512): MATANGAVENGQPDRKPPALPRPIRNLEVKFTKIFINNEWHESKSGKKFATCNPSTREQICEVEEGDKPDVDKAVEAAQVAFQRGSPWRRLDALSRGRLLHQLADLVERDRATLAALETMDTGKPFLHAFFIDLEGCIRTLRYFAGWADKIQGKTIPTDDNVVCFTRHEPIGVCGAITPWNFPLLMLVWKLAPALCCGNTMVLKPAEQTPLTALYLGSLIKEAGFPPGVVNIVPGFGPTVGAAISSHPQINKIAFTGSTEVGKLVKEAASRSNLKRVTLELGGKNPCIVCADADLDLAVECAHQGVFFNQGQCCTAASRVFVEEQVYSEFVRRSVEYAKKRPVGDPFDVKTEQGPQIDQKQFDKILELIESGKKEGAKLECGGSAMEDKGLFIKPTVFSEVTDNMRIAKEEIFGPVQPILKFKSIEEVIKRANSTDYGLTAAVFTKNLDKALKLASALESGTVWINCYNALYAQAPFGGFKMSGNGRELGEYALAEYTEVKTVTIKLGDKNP
Described as above. The conditions noted are these: for remaining activity at 20 µM: compound at 20 μM, read-out: ALDH1A3 % Control at 20 μM; for IC50: 100-200 nM enzyme, 200 μM NAD+, 100 μM propionaldehyde, pH 7.5, 25° C. In kind it is biochemical.

A further series deals with T4, ALDH2 (Homo sapiens, UniProt P05091).
T4 sequence (P05091 18-517): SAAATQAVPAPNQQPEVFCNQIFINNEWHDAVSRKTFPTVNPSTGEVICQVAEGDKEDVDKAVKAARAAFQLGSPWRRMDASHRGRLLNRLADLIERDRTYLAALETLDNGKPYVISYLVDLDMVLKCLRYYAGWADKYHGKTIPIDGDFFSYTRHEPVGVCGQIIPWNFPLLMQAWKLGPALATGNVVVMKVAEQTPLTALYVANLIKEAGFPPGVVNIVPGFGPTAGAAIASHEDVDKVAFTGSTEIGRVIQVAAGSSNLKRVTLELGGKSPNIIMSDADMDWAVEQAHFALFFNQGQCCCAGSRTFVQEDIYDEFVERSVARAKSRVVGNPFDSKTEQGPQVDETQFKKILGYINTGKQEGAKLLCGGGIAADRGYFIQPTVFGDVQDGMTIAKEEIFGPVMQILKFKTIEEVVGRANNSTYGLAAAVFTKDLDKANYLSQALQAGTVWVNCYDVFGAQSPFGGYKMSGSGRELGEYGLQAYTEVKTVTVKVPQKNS
The series is described as above. The series is classed as biochemical. The conditions noted are these: compound at 20 μM; for remaining activity at 20 µM: read-out: ALDH2 % Control at 20 μM. Also on record: key to ALDH2 inhibition at 20 μM (N.I.): N.I.: No inhibition at 20 μM.

The subject of the next series is OVSAHO. Description: OVSAHO Cell Viability. In kind it is cell-based. The conditions noted are these: for OVSAHO Cell Viability (30 μM) % CD133 + % ctrl / OVSAHO Cell Viability (50 μM) % CD133 + % ctrl: CD133+ cells; for OVSAHO Cell Viability (30 μM) Total Cell % ctrl / OVSAHO Cell Viability (50 μM) Total Cell % ctrl: total cells.
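Throughout, for ALDH2 % Control at 20 μM: run at 25 °C, started by adding substrate after 2 min preincubation, with 100-200 nM ALDH2, 200 µM NAD+, 100 µM propionaldehyde, 1% DMSO in BES buffer pH 7.5.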
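Throughout, for ALDH2 inhibition at 20 μM (N.I.): run at 25 °C, started by adding substrate after 2 min preincubation, with 100-200 nM ALDH2, 200 µM NAD+, 100 µM propionaldehyde, 1% DMSO in BES buffer pH 7.5.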

As for `C[C@H](Sc1nc2c(cnn2C)c(=O)n1-c1ccccc1)c1ccccc1` [Example 69, (S)-1-methyl-5-phenyl-6-((1-phenylethyl)thio)-1H-pyrazolo[3,4-d]pyrimidin-4(5H)-one], the remaining activity at 20 µM on ALDH1A1 was 18%; at ALDH1A2, 19%; on ALDH1A3, 9%; at ALDH2, 95%. In addition, the “OVSAHO Cell Viability (30 μM) % CD133 + % ctrl” value with OVSAHO worked out at 80% ctrl. Moreover, the “OVSAHO Cell Viability (30 μM) Total Cell % ctrl” value in the series with OVSAHO came to 25% ctrl.
Usually IC50 stands for the concentration at which inhibition is half-maximal. Consider `Cn1ncc2c(=O)n(-c3ccccc3O)c(SCc3cccc(F)c3)nc21` [Example 33, 6-((3-fluorobenzyl)thio)-5-(2-hydroxyphenyl)-1-methyl-1H-pyrazolo[3,4-d]pyrimidin-4(5H)-one], for which the IC50 at ALDH1A1 is 4100 nM. In addition, the values for the remaining activity at 20 µM at ALDH1A2, at ALDH1A3 and at ALDH2 were 92%, 100% and 88%, respectively. Besides, in the series with OVSAHO, the “OVSAHO Cell Viability (50 μM) % CD133 + % ctrl” value was determined as 92 % ctrl. For the same compound, in the series with OVSAHO, the “OVSAHO Cell Viability (50 μM) Total Cell % ctrl” value worked out at 18 % ctrl.
In the case of `O=c1c2cn(CC3COC3)nc2nc(OCc2cccc(F)c2)n1-c1ccccc1` [Example 63], on ALDH1A1, the IC50 was found to be 2280 nM. Moreover, the remaining activity at 5 µM on ALDH1A2 (compound at 5 μM (footnote *), read-out: ALDH1A2 % Control at 5 μM) turned out to be 43%. Further, at ALDH1A3 (compound at 5 μM (footnote *), read-out: ALDH1A3 % Control at 5 μM), the remaining activity at 5 µM turned out to be 61%. Also, the remaining activity at 20 µM at ALDH2 is 102%. In the series with OVSAHO, the “OVSAHO Cell Viability (30 μM) % CD133 + % ctrl” value is 81% ctrl and the “OVSAHO Cell Viability (30 μM) Total Cell % ctrl” value was found to be 18% ctrl.
As for `Cc1ccccc1-n1c(OCc2cc3ccccc3s2)nc2c(cnn2C)c1=O` [Example 40, 6-(benzo[b]thiophen-2-ylmethoxy)-1-methyl-5-(o-tolyl)-1H-pyrazolo[3,4-d]pyrimidin-4(5H)-one], the IC50 at ALDH1A1 was 1700 nM; at ALDH1A2, greater than 10000 nM; at ALDH1A3 it was greater than 10000 nM. In addition, the “ALDH2 inhibition at 20 μM (N.I.)” value at ALDH2 was “N.I”. The “OVSAHO Cell Viability (50 μM) % CD133 + % ctrl” value in the series with OVSAHO is 50 % ctrl. Moreover, in the series on OVSAHO, the “OVSAHO Cell Viability (50 μM) Total Cell % ctrl” value worked out at 15 % ctrl.
For the compound `CCn1cc2c(=O)n(-c3ccccc3)c(SCc3cccc(F)c3)nc2n1` [Example 15, 2-ethyl-6-((3-fluorobenzyl)thio)-5-phenyl-2H-pyrazolo[3,4-d]pyrimidin-4(5H)-one], the IC50 at ALDH1A1 amounted to 172 nM; at ALDH1A2, 600 nM; at ALDH1A3, 153 nM. The remaining activity at 20 µM on ALDH2 was found to be 98%. In addition, in the series on OVSAHO, the “OVSAHO Cell Viability (50 μM) % CD133 + % ctrl” value is 83 % ctrl. In the series on OVSAHO, the “OVSAHO Cell Viability (50 μM) Total Cell % ctrl” value is 51 % ctrl.
Turning to `O=c1c2cn(CC3CNC3)nc2nc(SCc2cccc(F)c2)n1-c1ccccc1` [Example 68, 3-((6-((3-fluorobenzyl)thio)-4-oxo-5-phenyl-4,5-dihydro-2H-pyrazolo[3,4-d]pyrimidin-2-yl)methyl)azetidin-1-ium sulfate], the remaining activity at 20 µM came out at 14% on ALDH1A1, 14% on ALDH1A2, 10% at ALDH1A3 and 93% on ALDH2. Moreover, in the series with OVSAHO, the “OVSAHO Cell Viability (30 μM) Total Cell % ctrl” value is on record as 16% ctrl.
On to `CCn1ncc2c(=O)n(-c3ccccc3)c(SCc3cccc(F)c3)nc21` [Example 14, 1-ethyl-6-((3-fluorobenzyl)thio)-5-phenyl-1H-pyrazolo[3,4-d]pyrimidin-4(5H)-one], for which the IC50 on ALDH1A1 was determined as 320 nM; on ALDH1A2, 400 nM; at ALDH1A3, 250 nM. Further, the remaining activity at 20 µM on ALDH2 turned out to be 82%. In the series with OVSAHO, the “OVSAHO Cell Viability (50 μM) % CD133 + % ctrl” value amounted to 39 % ctrl. Further, in the series on OVSAHO, the “OVSAHO Cell Viability (50 μM) Total Cell % ctrl” value is on record as 13 % ctrl.
In the case of `CC(C)CCSc1nc2c(cnn2C)c(=O)n1-c1ccccc1` [Example 38, 6-(isopentylthio)-1-methyl-5-phenyl-1H-pyrazolo[3,4-d]pyrimidin-4(5H)-one], the IC50 was determined as 1200 nM on ALDH1A1, 940 nM on ALDH1A2 and 390 nM on ALDH1A3. For the same compound, the remaining activity at 20 µM at ALDH2 was 96%. Further, the “OVSAHO Cell Viability (50 μM) % CD133 + % ctrl” value in the series with OVSAHO is recorded as 50 % ctrl. Moreover, the “OVSAHO Cell Viability (50 μM) Total Cell % ctrl” value in the series on OVSAHO is given as 39 % ctrl.
